Assay [1] deals with survivin, Cyclin D1, YY1 and FTII-D. In words: Immunoblotting of protein expression after CPX treatment. The class given is cell-based. The following applies: prior to the onset of cell death. The procedure:
(§1) FIG. 5: Cell cycle arrest, survivin decrease and p53 increase precede CPX induced cell death. A) HeLa, PPC-1 and MDAY-D2 cells were treated with 5 μM CPX or buffer control. Eighteen hours after incubation, cell cycle was analyzed by PI staining and Flow cytometry. B) NB4 and OCI-M2 cell lines were incubated with CPX (5 μM) for 48 hours. After incubation cells were harvested and nuclear proteins were isolated. Levels of p53 and the nuclear protein glucocorticoid receptor (GR) were measured by immunoblotting. C) Solid tumor (OVCAR3, HT-29, HepG2, DU145, HeLa) and leukemia (OCI-M2, OCI-AML2, NB4, HL-6) cell lines were treated with CPX (2.5 μM) or buffer control for 48 hours. After incubation, total protein was isolated. Levels of survivin and GAPDH were measured by immunoblotting.
Total cell lysates were prepared from cells. […] Protein concentrations were measured by the Bradford assay (Anal Biochem. 1996; 236:221-228). […]
Membranes were probed with polyclonal rabbit anti-human survivin (1 μg/mL) (NOVUS), monoclonal mouse anti-human p53 (0.5 μg/mL), polyclonal rabbit anti-human GR (0.5 μg/mL) both from (Santa Cruz Biotechnologies, CA), or with mouse anti-human GADPH (Trevigen, Gaithersburg, Md.). […] Detection was performed by the enhanced chemical luminescence method (Pierce, Rockford, Ill.).

For the next assay, the system named is leukemia cell lines. Put plainly: MTS cell viability assay in leukemia/lymphoma cell lines. It is filed as cell-based. The following applies: increasing concentrations, 72 hours. The method, then: Leukemia (HL-60, RSV411, k562, Jurkat, U937), LYMPHOMA (MDAY-D2), solid tumour cell lines (PPC-1, HeLa, OVCAR-3, DU-145, HT-29) and GMO5757 human lung fibroblasts were cultured in RPMI 1640 medium. HepG2 hepatoma cells and MRC5 human lung fibroblasts were grown in Dulbecco modified Eagle medium. OCI-M2, OCI-AML2 and NB4 leukemia cell lines and OPM2, KMS11, LP1, UTMC2, KSM18 and OCIMy5 myeloma cell lines were maintained in Iscove Modified Dulbecco Medium. LF1 human lung fibroblasts were maintained in HAM medium. All media were supplemented with 10% fetal calf serum, 100 μg/mL of penicillin, and 100 units/mL of streptomycin (all from Hyclone, Logan, Utah). The cells were incubated at 37° C. in a humidified air atmosphere supplemented with 5% CO2.
The CellTiter96 aqueous nonradioactive (MTS) assay was used to measure cell viability according to the manufacturer's instructions (Promega). Propidium iodide (PI) staining was used according to manufacturer's instructions (Biovision, Mountain view, Calif.).
From this chemical screen, the antimicrobial CPX was identified. CPX is currently used for the topical treatment of cutaneous fungal infections. As an anti-fungal agent, the mechanism of action of CPX is not well understood, but appears related to binding intracellular iron and inhibiting iron containing enzymes. […] 72 hours after incubation, cell viability was measured by the MTS assay. […]
(In general: Tetrazolium dyes change colour on reduction, which living cells bring about.)

The test system of the next assay is survivin promoter. Put plainly: Survivin promoter luciferase reporter screen in HeLa cells. The class given is cell-based, human. The following applies: 5 μM, 24 hours. An excerpt: The full-length survivin promoter (−1059 upstream of the initiating ATG) (NIEHS-SNPs, Environmental Genome Project, NIEHS ES15478, Department of Genome Sciences, Seattle, Wash.) was isolated from HeLa genomic DNA using the forward primer 5′-[…]-3′ (SEQ ID NO:1) and the reverse primer 5′-[…]-3′ (SEQ ID NO:2).
The promoter was sub-cloned into the GL4.20 firefly luciferase reporter vector (Promega Corporation, Madison, Wis.). Clones were sequence-verified for orientation and integrity using a CEQ 8000 Genetic Analysis System (Beckman, Mississauga, ON, Canada). […]
(A) HeLa cells stably overexpressing the survivin promoter driving luciferase (15000 cells/well) were plated in 96-well plates. […] After incubation, survivin promoter activity was assessed by the luciferase assay described below. […]
Luciferase activity was measured according to the manufacturer's instructions and as previously described (Promega, Madison, Wis.) (Mao Blood). […] After 10-minutes incubation, an equal volume of Bright-Glo Luciferase substrate (Promega) was added, and the luminescence signal was detected with a 96-well Luminoskan luminescence plate reader (Thermo Fisher Scientific, Waltham, Mass.) with 5-seconds integration time. […]
A general note: In a reporter assay the amount or activity of a reporter protein is the signal.

Assay [2] concerns HeLa, PPC-1 and MDAY-D2 cells. In words: Cell cycle analysis by PI staining and flow cytometry. The class given is cell-based. The following applies: 5 μM CPX; eighteen hours; prior to the onset of cell death. The procedure:
as §1
Cell-cycle analysis was performed as previously described (Blood 112(3):760). Briefly, cells were harvested, washed with cold PBS, re-suspended in 70% cold ethanol, and incubated overnight at −20° C. Cells were then treated with 100 ng/mL of DNase-free RNase (Invitrogen, Carlsbad, Calif.) at 37° C. for 30 minutes, washed with cold PBS, and re-suspended in PBS with 50 μg/mL of PI (Sigma). DNA content was analyzed by flow cytometry (FACSCalibur; BD Biosciences, San Jose, Calif.).
(Flow cytometry measures light scatter and fluorescence of single cells or particles in a stream.)

In assay [3] the test system is OCI-AML2, K562 human leukemia cells and MDAY-D2 murine leukemia cells. The class given is in vivo. The settings on record: CPX 25 mg/kg daily by oral gavage; all 3 mouse models. The procedure:
MDAY-D2 (MDAY) murine leukemia cells (5×10^5) were injected intra-peritoneal into NOD/SCID mice (Ontario Cancer Institute, Toronto, ON), OCI-AML2 and K562 cells (2×10^6) were injected subcutaneously into both flanks of sub-lethally irradiated (3.5 Gy) NOD/SCID mice. Mice were then treated daily by oral gavages with CPX (25 mg/kg) in PBS or vehicle control. Tumour volume (tumour length×width^2×0.5236) (Mol Cancer Ther. 2004; 3:1239-1248) was measured weekly using calipers. Eight (MDAY-D2), 11 (OCI-AML2) or 30 (K562) days after injection of cells, mice were sacrificed, and the volume and weight of the tumours was measured. All animal studies were carried out according to the regulations of the Canadian Council on Animal Care and with the approval of the local ethics review board.
Given the effects in leukemia cells lines, the effects of oral CPX was evaluated in 3 mouse models of leukemia. Sublethally irradiated NOD-SCID mice were injected subcutaneously with OCI-AML2 or K562 human leukemia cells or intraperitoneally with MDAY-D2 murine leukemia cells. […].

Each structure is given as a SMILES string. Entries after “also recorded” stand apart in the source; their conditions may differ.

As for `Cc1cc(C2CCCCC2)n(O)c(=O)c1` [CPX, 6-Cyclohexyl-1-hydroxy-4-methyl-2(1H)-pyridone], the “effect on protein expression” value in assay [1] is “down-regulated the expression of survivin, Cyclin D1, and the transcription factors YY1 and FTII-D”. Moreover, in the assay on leukemia cell lines, the “effect on cell viability” value was “decreased cell viability in all leukemia cell lines tested; also recorded: decreased cell viability in all leukemia and lymphoma cell lines”. Further, the “inhibition of survivin transactivation (luciferase expression)” value in the assay with survivin promoter is “inhibitor of survivin transactivation”. The cell cycle effect result in assay [2] was “arrested cells in the G1/S phase of the cell cycle”. In addition, in assay [3], the “decrease in tumor volume compared to control” value is on record as “up to 65%” and the “decrease in tumor weight compared to control” value is given as “up to 65%”.

For the origin of these results see patent US20110212176A1, “CICLOPIROX AND CYTARABINE FOR THE TREATMENT OF LEUKEMIC DISORDERS” (priority 2008, published 2011).
